Experimental data reported in patent US4737500A, “1-substituted-4-(thiazolyl-2-)-piperazines, -piperidines and -tetrahydropyridines useful as anxiolytic, psychogeriatric, antidepressant and antischizophrenic agents” (priority 1985, dated 1988).

Key:
[1] = target: T1, 5HT-1A-binding sites in the pig cortex (Sus scrofa, UniProt A0A4X1UTF5); test: 5HT-1A-binding affinity test, binding of 3H-8-hydroxy-2-(di-n-propylamino)-tetraline (3H-PAT)
T1 construct: from tissue; host or cells: pig cortex
T1 sequence (A0A4X1UTF5 1-422): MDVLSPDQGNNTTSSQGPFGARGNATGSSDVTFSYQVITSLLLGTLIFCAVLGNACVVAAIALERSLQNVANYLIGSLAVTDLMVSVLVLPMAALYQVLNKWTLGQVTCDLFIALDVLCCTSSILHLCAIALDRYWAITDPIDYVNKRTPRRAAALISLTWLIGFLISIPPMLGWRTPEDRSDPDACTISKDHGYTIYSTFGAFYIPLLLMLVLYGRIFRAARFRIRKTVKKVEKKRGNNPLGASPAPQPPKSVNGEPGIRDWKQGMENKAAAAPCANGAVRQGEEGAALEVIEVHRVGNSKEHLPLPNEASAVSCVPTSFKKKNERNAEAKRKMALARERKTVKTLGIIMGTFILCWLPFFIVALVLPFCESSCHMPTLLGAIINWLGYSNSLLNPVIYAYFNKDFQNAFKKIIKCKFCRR

[2] = aggression test: social interactions in male mice in aggression-evoking social encounters; assay type: in vivo, mouse; conditions: 0.3 mg/kg p.o. (acute administration)
Method: The compounds of formula I promote social interactions after acute and chronic administration of 0.3 to 10 mg/kg p.o. in male mice in aggression-evoking social encounters [A. K. Dixon, Triangle 21 (1982) 95-105; M. Krsiak, Brit. J. Pharmacol. 55 (1975) 141-150]. […] M. Y. Spiegelstein, A. Levy, Elsevier, Amsterdam (1982) 39-55].

[3] = atypical dozing in the rat-8h-sleep-EEG; assay type: in vivo; conditions: 10 mg/kg p.o.
[4] = 8h-sleep-EEG: sleep phases in the sleep/wake cycle in the rat; assay type: in vivo; conditions: 10 mg/kg p.o.; rat 8h-sleep-EEG
Method: Further, the compounds of formula I modify the sleep phases in the sleep/wake cycle in the rat after administration of 3 to 30 mg/kg p.o. [H. Kleinlogel, EEG in Drug Research, Ed. H. Hermann, Gustav Fischer Verlag, Stuttgart, New York, 75-88 (1982)]. In the 8h-EEG, the slow wave phase (SWS) is increased, whereas the spindle phase and the paradoxical sleep phase (PS) are reduced. In Hjorth, parameters are the mean EEG amplitude (CA) and the complexity (CCF) increased.

[5] = reference antidepressants, A. K. Dixon 1982; cited from earlier work
[6] = reference antischizophrenics; Sayers and Kleinlogel 1974; cited from earlier work
[7] = characteristic for antidepressants; H. Kleinlogel, page 83; cited from earlier work

COc1ccc(Cl)cc1C(=O)NCCN1CCN(c2nc(C(C)(C)C)cs2)CC1 [Example 8, 5-Chloro-2-methoxy-N-(2-(4-(4-(1,1-dimethylethyl)-2-thiazolyl)-1-piperazinyl)ethyl)-benzamide]
IC50 [1]: 600 nM
promotion of social interactions [2]: promotes social interactions
atypical dozing [3]: shows atypical dozing
complexity (CCF) [4]: increased
mean EEG amplitude (CA) [4]: increased
paradoxial sleep phase (PS) [4]: reduces
slow wave phase (SWS) [4]: increases
spindle phase [4]: reduces

CN(C)CCC=C1c2ccccc2CCc2ccccc21 [amitriptyline]
promotion of social behaviour [5]: promote social behaviour

O=C1CC2(CCCC2)CC(=O)N1CCCCN1CCN(c2ncccn2)CC1 [buspirone]
IC50 [1]: 10 to 400 nM

CN1CCN(C2=Nc3cc(Cl)ccc3Nc3ccccc32)CC1 [clozapine]
atypical dozing characteristic for antischizophrenics [6]: atypical dozing characteristic

CNCCCN1c2ccccc2CCc2ccccc21 [desipramine]
decrease of paradoxical sleep phase [7]: decrease of paradoxical sleep phase

CN(C)CCN1C(=O)c2ccccc2N(C)c2ccccc21 [dibenzepine]
decrease of paradoxical sleep phase [7]: decrease of paradoxical sleep phase

O=C(CCCN1CCC(O)(c2ccc(Cl)cc2)CC1)c1ccc(F)cc1 [haloperidol]
atypical dozing characteristic for antischizophrenics [6]: atypical dozing characteristic

CN(C)CCCN1c2ccccc2CCc2ccccc21 [imipramine]
promotion of social behaviour [5]: promote social behaviour
decrease of paradoxical sleep phase [7]: decrease of paradoxical sleep phase

CN1CCN2c3ccccc3Cc3ccccc3C2C1 (stereo not drawn) [mianserine]
decrease of paradoxical sleep phase [7]: decrease of paradoxical sleep phase

CN1Cc2c(N)cccc2C(c2ccccc2)C1 (stereo not drawn) [nomifensine]
decrease of paradoxical sleep phase [7]: decrease of paradoxical sleep phase
